Laboratory results published in ChEMBL document CHEMBL1201862, “PubChem BioAssay data set” (2004).
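Results reflect a 48-hour exposure of cells in 96-well plates to compound at five concentrations. Here, GI50 denotes the concentration required for 50% inhibition of growth.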 Active and inactive are the calls of the source. Rule as the data show it: active = GI50 up to about 1.1 µM and inactive = higher.

Tests used:
Experiment in all cases: DTP human tumour cell line panel, 48 h
HCT-116 = system: HCT-116
EKVX = system: EKVX
SNB-75 = system: SNB-75
K562 = system: K562
SF-268 = system: SF-268
HL-60 = system: HL-60
RXF 393 = system: RXF 393
NCI-H460 = system: NCI-H460
SK-MEL-2 = system: SK-MEL-2
OVCAR-3 = system: OVCAR-3
Malme-3M = system: Malme-3M
UO-31 = system: UO-31
A549 = system: A549
HCT-15 = system: HCT-15
NCI-H23 = system: NCI-H23
OVCAR-8 = system: OVCAR-8
SK-MEL-28 = system: SK-MEL-28
NCI-H226 = system: NCI-H226
PC-3 = system: PC-3
MDA-MB-231 = system: MDA-MB-231

SMILES | GI50 (HCT-116) | GI50 (EKVX) | GI50 (SNB-75) | GI50 (K562) | GI50 (SF-268) | GI50 (HL-60) | GI50 (RXF 393) | GI50 (NCI-H460) | GI50 (SK-MEL-2) | GI50 (OVCAR-3) | GI50 (Malme-3M) | GI50 (UO-31) | GI50 (A549) | GI50 (HCT-15) [µM] | GI50 (NCI-H23) | GI50 (OVCAR-8) | GI50 (SK-MEL-28) | GI50 (NCI-H226) | GI50 (PC-3) | GI50 (MDA-MB-231)
CC(C)=C1CCC(CN2CCCC2)C1=O (centres undefined) | 17.7 µM (inactive) | > 100 µM (inactive) | 55.2 µM (inactive) | 21.8 µM (inactive) | 33.8 µM (inactive) | 19.7 µM (inactive) | 21.4 µM (inactive) | 58.7 µM (inactive) | 29.6 µM (inactive) | 17.4 µM (inactive) | 21.4 µM (inactive) | 20.8 µM (inactive) | > 100 µM (inactive) | 18.5 | > 100 µM (inactive) | > 100 µM (inactive) | 26.7 µM (inactive) | > 100 µM (inactive) | – | –
O=C(/C=C\c1ccc(Cl)c(Cl)c1)c1ccc(Cl)cc1Cl | 9.14 µM (inactive) | 23.4 µM (inactive) | 17.1 µM (inactive) | 6.11 µM (inactive) | 21.6 µM (inactive) | 4.73 µM (inactive) | 16.1 µM (inactive) | 23.3 µM (inactive) | 19.7 µM (inactive) | 18.2 µM (inactive) | 17.9 µM (inactive) | > 10 µM (inactive) | 22.6 µM (inactive) | 4.15 | 0.65 µM (active) | 19.1 µM (inactive) | > 10 µM (inactive) | 9.51 µM (inactive) | – | –
Cc1c(Cl)cccc1NC(=O)c1cccc([N+](=O)[O-])c1O | 13.7 µM (inactive) | 16 µM (inactive) | 17.5 µM (inactive) | 17.3 µM (inactive) | 20.3 µM (inactive) | 8.39 µM (inactive) | 4.29 µM (inactive) | 8.81 µM (inactive) | 10.7 µM (inactive) | 5.71 µM (inactive) | 6.25 µM (inactive) | 10.5 µM (inactive) | 11.4 µM (inactive) | 14.4 | 6.87 µM (inactive) | 21 µM (inactive) | 9.68 µM (inactive) | 15.5 µM (inactive) | – | –
CC1=C(C(=O)Nc2ccccc2C)C(/C=C/c2ccccc2)C(C(=O)Nc2ccccc2C)=C(C)N1 | > 100 µM (inactive) | > 100 µM (inactive) | 33.5 µM (inactive) | > 100 µM (inactive) | > 100 µM (inactive) | 72.3 µM (inactive) | 51.1 µM (inactive) | > 100 µM (inactive) | > 100 µM (inactive) | > 100 µM (inactive) | > 100 µM (inactive) | 34.8 µM (inactive) | 99.3 µM (inactive) | > 100 | > 100 µM (inactive) | > 100 µM (inactive) | > 100 µM (inactive) | > 100 µM (inactive) | – | –
CCOC(=O)C1S/C(=N\c2ccc(OC)c(OC)c2)N=C1C (centres undefined) | 32.7 µM (inactive) | 94.8 µM (inactive) | 24.5 µM (inactive) | 36.6 µM (inactive) | 33.6 µM (inactive) | 19.2 µM (inactive) | 29.9 µM (inactive) | 43.5 µM (inactive) | 29.8 µM (inactive) | 29.5 µM (inactive) | 37.7 µM (inactive) | 34.6 µM (inactive) | 34.8 µM (inactive) | 28.6 | 27.7 µM (inactive) | 36.6 µM (inactive) | 30.6 µM (inactive) | 64.1 µM (inactive) | – | –
CC[P+](C)(C)CC | > 100 µM (inactive) | > 100 µM (inactive) | > 100 µM (inactive) | > 100 µM (inactive) | > 100 µM (inactive) | > 100 µM (inactive) | > 100 µM (inactive) | > 100 µM (inactive) | 82.8 µM (inactive) | > 100 µM (inactive) | > 100 µM (inactive) | > 100 µM (inactive) | > 100 µM (inactive) | > 100 | > 100 µM (inactive) | > 100 µM (inactive) | > 100 µM (inactive) | > 100 µM (inactive) | – | –
CC(C)(C)N1CC2(CCCCC2)C1=O | > 100 µM (inactive) | > 100 µM (inactive) | > 100 µM (inactive) | > 100 µM (inactive) | 99.1 µM (inactive) | > 100 µM (inactive) | > 100 µM (inactive) | > 100 µM (inactive) | > 100 µM (inactive) | > 100 µM (inactive) | > 100 µM (inactive) | > 100 µM (inactive) | > 100 µM (inactive) | > 100 | > 100 µM (inactive) | > 100 µM (inactive) | > 100 µM (inactive) | > 100 µM (inactive) | – | –
CN1CCN2c3ccccc3CC(C#N)(C#N)C2C1 (centres undefined) | > 100 µM (inactive) | > 100 µM (inactive) | > 100 µM (inactive) | > 100 µM (inactive) | > 100 µM (inactive) | > 100 µM (inactive) | > 100 µM (inactive) | > 100 µM (inactive) | > 100 µM (inactive) | > 100 µM (inactive) | > 100 µM (inactive) | > 100 µM (inactive) | > 100 µM (inactive) | > 100 | > 100 µM (inactive) | > 100 µM (inactive) | > 100 µM (inactive) | > 100 µM (inactive) | – | –
CCc1nc(Cl)c(Cl)c(Cl)n1 | – | > 100 µM (inactive) | 0.242 µM (active) | > 100 µM (inactive) | > 100 µM (inactive) | > 100 µM (inactive) | > 100 µM (inactive) | > 100 µM (inactive) | > 100 µM (inactive) | > 100 µM (inactive) | > 100 µM (inactive) | > 100 µM (inactive) | > 100 µM (inactive) | > 100 | > 100 µM (inactive) | > 100 µM (inactive) | > 100 µM (inactive) | > 100 µM (inactive) | > 100 µM (inactive) | –
C=C1CC2OC2(C(=O)O[C@H]2CCC3[C@@H]4CCC5=CC(=O)CC[C@]5(C)C4CC[C@@]32C)C1=O (some centres undefined) | 5.81 µM (inactive) | 25.5 µM (inactive) | 16.9 µM (inactive) | 1.78 µM (inactive) | 8.41 µM (inactive) | 0.83 µM (active) | 4.43 µM (inactive) | 11 µM (inactive) | 6.07 µM (inactive) | 8.51 µM (inactive) | 6.56 µM (inactive) | 8.38 µM (inactive) | 21.3 µM (inactive) | 3.68 | 9.53 µM (inactive) | 7.59 µM (inactive) | 8.87 µM (inactive) | 22.9 µM (inactive) | – | –
O=C1C=CC(=O)c2c1c1c(c3c2C2c4ccccc4C3c3ccccc32)C2c3ccccc3C1c1ccccc12 | 1.56 µM (inactive) | 3.66 µM (inactive) | 10.2 µM (inactive) | 3.69 µM (inactive) | 7.64 µM (inactive) | 1.54 µM (inactive) | 1.59 µM (inactive) | 13.2 µM (inactive) | 1.89 µM (inactive) | 1.77 µM (inactive) | 1.6 µM (inactive) | 2.04 µM (inactive) | 8.69 µM (inactive) | 1.54 | 2.72 µM (inactive) | 1.53 µM (inactive) | 1.42 µM (inactive) | 4.71 µM (inactive) | 1.74 µM (inactive) | –
CC(=O)SCCC(NC(=S)Nc1ccccc1)P(=O)(Oc1ccccc1)Oc1ccccc1 (centres undefined) | > 100 µM (inactive) | > 100 µM (inactive) | > 100 µM (inactive) | > 100 µM (inactive) | > 100 µM (inactive) | > 100 µM (inactive) | > 100 µM (inactive) | > 100 µM (inactive) | – | > 100 µM (inactive) | > 100 µM (inactive) | > 100 µM (inactive) | > 100 µM (inactive) | > 100 | > 100 µM (inactive) | > 100 µM (inactive) | > 100 µM (inactive) | > 100 µM (inactive) | – | > 100 µM (inactive)
CC(=O)O[C@H]1CC[C@@]2(C)C(CC[C@]3(C)C2CC[C@]2(C)Oc4c(C)cc(O)cc4C[C@@H]23)C1(C)C (some centres undefined) | 5.27 µM (inactive) | 19.5 µM (inactive) | 2.96 µM (inactive) | 3.96 µM (inactive) | 4.61 µM (inactive) | 3.82 µM (inactive) | 2.88 µM (inactive) | 4.11 µM (inactive) | 7.52 µM (inactive) | 11.7 µM (inactive) | 10.1 µM (inactive) | 8.75 µM (inactive) | 5.22 µM (inactive) | 3.66 | 6.56 µM (inactive) | 8.93 µM (inactive) | 8.59 µM (inactive) | 15.9 µM (inactive) | – | –
COC(=O)c1ccc(NCc2cc(O)ccc2O)cc1 | 17.4 µM (inactive) | 15.6 µM (inactive) | 15.3 µM (inactive) | 4 µM (inactive) | 11.2 µM (inactive) | 1.69 µM (inactive) | 6.73 µM (inactive) | 23.6 µM (inactive) | 16 µM (inactive) | 10.9 µM (inactive) | 6.71 µM (inactive) | 8 µM (inactive) | 14.5 µM (inactive) | 10.2 | 15.4 µM (inactive) | 11.6 µM (inactive) | 18.9 µM (inactive) | 8.38 µM (inactive) | 4.39 µM (inactive) | –
O=c1c2cc(S(=O)(=O)O)ccc2nc(COc2ccc(Oc3ccc(Cl)cc3Cl)cc2)n1-c1ccc(Oc2ccc(Cl)cc2)cc1Cl | 20.8 µM (inactive) | 17.6 µM (inactive) | 22.6 µM (inactive) | 28.2 µM (inactive) | 12.7 µM (inactive) | 19.2 µM (inactive) | 0.0752 µM (active) | 16.6 µM (inactive) | 16.5 µM (inactive) | 18.3 µM (inactive) | 28.1 µM (inactive) | 13.9 µM (inactive) | 19.3 µM (inactive) | 19.9 | 21.7 µM (inactive) | 19 µM (inactive) | – | 19.5 µM (inactive) | 26.7 µM (inactive) | –
O=C(O)[C@@H](NS(=O)(=O)c1ccc([N+](=O)[O-])cc1)c1ccccc1 | – | > 100 µM (inactive) | > 100 µM (inactive) | > 100 µM (inactive) | > 100 µM (inactive) | > 100 µM (inactive) | > 100 µM (inactive) | > 100 µM (inactive) | > 100 µM (inactive) | > 100 µM (inactive) | > 100 µM (inactive) | > 100 µM (inactive) | > 100 µM (inactive) | > 100 | > 100 µM (inactive) | > 100 µM (inactive) | > 100 µM (inactive) | > 100 µM (inactive) | – | –
